# Where “and” joins values, the source holds several entries; their conditions need not be identical. Equal entries are not always repeated.
# B1: purified FAD-GDH (Aspergillus oryzae) (protein)
# chain: SPAGRAKNTTTYDYIVVGGGTSGLVVANRLSENPDVSVLLLEAGASVFNNPDVTNANGYGLAFGSAIDWQYQSINQSYAGGKQQVLRAGKALGGTSTINGMAYTRAEDVQIDVWQKLGNEGWTWKDLLPYYLKSENLTAPTSSQVAAGAAYNPAVNGKEGPLKVGWSGSLASGNLSVALNRTFQAAGVPWVEDVNGGKMRGFNIYPSTLDVDLNVREDAARAYYFPYDDRKNLHLLENTTANRLFWKNGSAEEAIADGVEITSADGKVTRVHAKKEVIISAGALRSPLILELSGVGNPTILKKNNITPRVDLPTVGENLQDQFNNGMAGEGYGVLAGASTVTYPSISDVFGNETDSIVASLRSQLSDYAAATVKVSNGHMKQEDLERLYQLQFDLIVKDKVPIAEILFHPGGGNAVSSEFWGLLPFARGNIHISSNDPTAPAAINPNYFMFEWDGKSQAGIAKYIRKILRSAPLNKLIAKETKPGLSEIPATAADEKWVEWLKANYRSNFHPVGTAAMMPRSIGGVVDNRLRVYGTSNVRVVDASVLPFQVCGHLVSTLYAVAERASDLIKEDAKSA
# Key:
# [1] = molecular target: purified FAD-GDH (Aspergillus oryzae, UniProt A0A1S9DW10); assay: Substrate specificity 1 of purified FAD-GDH (PMS/NTB); assay type: biochemical, Aspergillus oryzae BB-56; settings: reaction rate with respect to D-glucose assumed 100%, PIPES-NaOH pH 6.5, 37° C.
# Procedure: Thus, the enzymatic activity was measured. The relative activity with respect to each substrate was calculated when the reaction rate with respect to D-glucose was assumed to be 100% (Table 3).
# [2] = system: FAD-GDH derived from Aspergillus oryzae IAM2628; assay: Substrate specificity 2, relative activity (PMS/DCIP); assay type: biochemical; settings: activity with D-glucose assumed 100%; dialyzed culture filtrate; MOPS pH 7.0, 25° C.
# Procedure: (§1) 10 mL of each culture filtrate derived from Aspergillus oryzae BB-56, IAM2603, IAM2628, IAM2683, IAM2736, IAM2706, or NBRC30113 was placed in a dialysis membrane 36 and dialyzed in 10 mM KH2PO4—NaOH at 4° C. over night.
# (§2) By measuring the decrease of DCIP by the reduction reaction in the absorbance at 600 nm, the FAD-GDH activity was measured. The activity with respect to each substrate was calculated when the activity with respect to D-glucose as a substrate was assumed to be 100% (Table 4). From the results, the substrate specificities of FAD-GDH derived from Aspergillus oryzae BB-56, IAM2603, IAM2628, IAM2683, IAM2736, IAM2706, or NBRC30113 are the same as each other.
# [3] = system: FAD-GDH derived from Aspergillus oryzae BB-56; assay: as above; assay type: biochemical; settings: activity with D-glucose assumed 100%; dialyzed culture filtrate; MOPS pH 7.0, 25° C.
# Procedure: as §1, §2
# [4] = system: FAD-GDH derived from Aspergillus oryzae NBRC30113; assay: as above; assay type: biochemical; settings: activity with D-glucose assumed 100%; dialyzed culture filtrate; MOPS pH 7.0, 25° C.
# Procedure: as §1, §2
# [5] = system: FAD-GDH derived from Aspergillus oryzae IAM2603; assay: as above; assay type: biochemical; settings: activity with D-glucose assumed 100%; dialyzed culture filtrate; MOPS pH 7.0, 25° C.
# Procedure: as §1, §2
# [6] = system: FAD-GDH derived from Aspergillus oryzae IAM2706; assay: as above; assay type: biochemical; settings: activity with D-glucose assumed 100%; dialyzed culture filtrate; MOPS pH 7.0, 25° C.
# Procedure: as §1, §2
# [7] = system: FAD-GDH derived from Aspergillus oryzae IAM2683; assay: as above; assay type: biochemical; settings: activity with D-glucose assumed 100%; dialyzed culture filtrate; MOPS pH 7.0, 25° C.
# Procedure: as §1, §2
# [8] = system: FAD-GDH derived from Aspergillus oryzae IAM2736; assay: as above; assay type: biochemical; settings: activity with D-glucose assumed 100%; dialyzed culture filtrate; MOPS pH 7.0, 25° C.
# Procedure: as §1, §2
# [9] = system: purified FAD-GDH; assay: Inhibition test with 1,10-phenanthroline (DCIP/1-methoxy PMS); assay type: biochemical, Aspergillus oryzae
# Procedure: The enzymatic activities were measured in the control group and the test group (group in which 1,10-phenanthroline was added) and both activities were compared with each other. Thereby, the inhibition effect of 1,10-phenanthroline on purified FAD-GDH was examined.
# Subsequently, 0.05 mL of enzyme solution was added, the change of absorbance in 600 nm of DCIP (ΔABS/min) was measured, and the enzymatic activity was calculated by the following calculation formula.
# In the above-mentioned measurement method, the enzymatic activities when 1,10-phenanthroline was added so that the final concentration became 1 mM, 5 mM, 10 mM, 25 mM, and 50 mM were measured, respectively.
# [10] = Investigation of pH for stability; assay type: physicochemical; settings: pH 3.0 to pH 7.0, 37° C., 30 minutes
# Procedure: Herein, the optimum pH is a value measured in, for example, Mcllvaine buffer as mentioned below in the Examples. The optimum temperature is also a value measured in, for example, PIPES-NaOH buffer (pH 6.5). Furthermore, the enzyme maintains 80% or more of the activity when it is treated under a certain pH condition at 37° C. for 30 minutes, the enzyme can be “stable” in the pH condition. Similarly, when the activity of the enzyme is not substantially deteriorated (that is to say, about 100% of the activity is maintained) after it is treated under a certain temperature condition in a suitable buffer solution (for example, PIPES-NaOH buffer, pH 6.5) for 20 minutes, the enzyme can be “stable” in the temperature condition. The Km value and the isoelectric point can be measured and evaluated by the method described below in the Examples (columns 8 and 6).
# Each treatment solution was appropriately diluted with 0.2M KH2PO4—NaOH buffer (pH 6.5) and the FAD-GDH activity was measured by the above-mentioned method 1. As a control, the activity of purified FAD-GDH, which was diluted with 0.1M KH2PO4—NaOH buffer (pH 6.5) and stored in ice, was also measured. As a result, FAD-GDH maintains 80% or more of the activity at least in the range from pH 3.0 to pH 7.0, showing that FAD-GDH is stable in the range from pH 3.0 to pH 7.0 (FIG. 7).
# [11] = Measurement of isoelectric point (glycerol density gradient electrophoresis); assay type: physicochemical
# Procedure: This dialysis sample was subjected to glycerol density gradient electrophoresis. A carrier ampholyte having a column volume of 110 mL (Pharmalyte™ 3-10 for IEF (Amersham Biosciences AB), average final concentration of 1%) was used to allow an electric current to pass at 5° C. at a constant voltage of 400V for 48 hours. After passing current, samples were recovered at the flow rate of about 2 mL/min (one fraction was made to be 1.5 mL). When pH and FAD-GDH activity of each fraction were measured, pI of FAD-GDH derived from Aspergillus oryzae BB-56 was 6.4 (FIG. 9).
# [12] = phosphate buffer pH 7.0, 37° C.; for GO activity: 500 nm
# Procedure: D-glucose+O2→D-glucono-δ-lactone+H2O2 Reaction 1
# H2O2+4-aminoantipyrine+phenol→quinonimine dye+4H2O Reaction 2
# H2O2 produced with GO in the reaction 1 is used in a production reaction of quinonimine dye with peroxidase in the reaction 2. By measuring the quinonimine dye in the absorbance in 500 nm, the GO activity was measured. The amount of enzyme oxidizing 1 μmole of D-glucose for one minute in the reaction condition at 37° C. is defined as one unit of the GO activity.
# 2.0 mL of phenol solution (0.1M phosphate buffer (pH 7.0) containing 0.152% phenol and 0.152% Triton X-100), 0.5 mL of 0.555 mol/L D-glucose solution, 0.5 mL of 25 U/mL peroxidase (AMANO ENZYME INC) solution, and 0.1 mL of 4 mg/mL 4-aminoantipyrine solution were mixed with each other and kept at 37° C. for 5 minutes. […] Two minutes and 5 minutes after the reaction was started, the absorbance in 500 nm was measured. Furthermore, as enzyme blank, 0.1M phosphate buffer (pH 7.0) was added instead of an enzyme solution, similarly the absorbance was measured. The GO activity was calculated from the following calculation formula.
# In the formula, “3” denotes a reaction time, “12.88” denotes molecular absorption constant (mM) of the quinonimine dye, “1/2” denotes a coefficient based on the fact that 1 mole of quinonimine dye is produced from 2 mole of H2O2, “3.2” denotes a final liquid amount of the reaction solution, “0.1” is sample amount (mL), and “Dm” is dilution ratio, respectively.
# [13] = Investigation of optimum temperature; assay type: biochemical; settings: PIPES-NaOH buffer pH 6.5, 30-65° C.
# Procedure: Thus, the enzymatic activity was measured. […] (FIG. 6).
# [14] = PMS/NTB, pH 6.5, 37° C.
# Procedure: 2.55 mL of 50 mM PIPES-NaOH buffer (pH 6.5) containing 0.22% (w/v) Triton X-100, 0.1 mL of 1M D-glucose solution, 0.2 mL of 3 mM PMS solution, and 0.1 mL of 6.6 mM NTB solution were mixed with each other and kept at 37° C. for 5 minutes. […] Diformazan produced by the enzyme reaction was measured in the absorbance in 570 nm and the amount Diformazan produced per minute was measured. Thus, the enzymatic activity was measured.
# [15] = Investigation of temperature for stability; assay type: physicochemical
# Procedure: Herein, the optimum pH is a value measured in, for example, Mcllvaine buffer as mentioned below in the Examples. The optimum temperature is also a value measured in, for example, PIPES-NaOH buffer (pH 6.5). Furthermore, the enzyme maintains 80% or more of the activity when it is treated under a certain pH condition at 37° C. for 30 minutes, the enzyme can be “stable” in the pH condition. […] The Km value and the isoelectric point can be measured and evaluated by the method described below in the Examples (columns 8 and 6).
# Purified FAD-GDH was diluted to 1 U/mL with 50 mM PIPES-NaOH buffer (pH 6.5) containing 1 mM calcium chloride, 0.1% (w/v) Triton X-100, and 0.1% (w/v) bovine serum albumin and treated at each designated temperature (5, 30, 40, 50, or 60° C.) for 20 minutes. Each treated solution was cooled in ice and then it was diluted with 50 mM PIPES-NaOH buffer (pH 6.5) containing 1 mM calcium chloride, 0.1% (w/v) Triton X-100, 0.1% (w/v) bovine serum albumin, and the FAD-GDH activity was measured in the above-mentioned method 1. As a control, FAD-GDH of the not thermally treated enzyme was measured. […]
# [16] = substrate: OC[C@H]1OC(O)[C@H](O)[C@@H](O)[C@@H]1O; assay: Measurement of Michaelis-Menten Km constant (Lineweaver-Burk plot); assay type: biochemical, Aspergillus oryzae BB-56; settings: other: purified FAD-GDH, PIPES-NaOH pH 6.5, 37° C.
Molecule,relative activity [1] [%],"relative activity, IAM2628 [2] [%]","relative activity, BB-56 [3] [%]","relative activity, NBRC30113 [4] [%]","relative activity, IAM2603 [5] [%]","relative activity, IAM2706 [6] [%]","relative activity, IAM2683 [7] [%]","relative activity, IAM2736 [8] [%]",also measured
OC[C@H]1O[C@H](O[C@H]2[C@H](O)[C@@H](O)C(O)O[C@@H]2CO)[C@H](O)[C@@H](O)[C@@H]1O (mixture of isomers) [maltose],0.582,0,0,0,0,0,0,0,
"c1cnc2c(c1)ccc1cccnc12 [1,10-phenanthroline]",,,,,,,,,"Inhibition effect ([9]; final concentration of 1,10-phenanthroline 5 mM): 21%; Inhibition effect ([9]; final concentration of 1,10-phenanthroline 10 mM): 38%"
O=CC[C@@H](O)[C@H](O)[C@H](O)CO [2-deoxyglucose],,34.2,35.1,35.3,29.0,33.9,32.7,31.3,
O=C(CO)[C@@H](O)[C@H](O)[C@H](O)CO [fructose],,1.40,0,0,0,0,0,0,
O=C[C@H](O)[C@@H](O)[C@@H](O)[C@H](O)CO [galactose],0.349,,,,,,,,
O=C[C@H](O)[C@@H](O)[C@H](O)CO [xylose],22.7,16.4,17.6,17.6,16.1,16.1,17.3,14.6,
flavin adenine dinucleotide-binding glucose dehydrogenase,,,,,,,,,"activity maintained after pH treatment [10]: ≥ 80%; isoelectric point (pI) ([11]; listed as FAD-GDH): about 6.4; isoelectric point (pI) ([11]; listed as FAD-GDH derived from Aspergillus oryzae BB-56): 6.4; GO activity (in words) [12]: does not substantially have the GO activity; GO activity [12]: 0.0025 U/mL; optimum temperature [13]: about 60 °C; GDH activity [14]: 119 U/mL; activity maintained after thermal treatment ([15]; 40° C. or less, 20 minutes, pH 6.5): ~100%; temperature for stability ([15]; treated 20 minutes in PIPES-NaOH pH 6.5, stable = about 100% of activity maintained): ≤ 40 °C"
glucose oxidase [GO],,,,,,,,,GO activity [12]: 67.8 U/mL; GDH activity [14]: 8.86 U/mL; GDH activity (in words) [14]: also has the GDH activity
maltohexaose,0.479,,,,,,,,
maltopentaose,4.55,,,,,,,,
maltotriose,0.239,,,,,,,,
B1,,,,,,,,,Km [16]: 8.2 mM and 8 mM
